Data set [1] in a line: Mutagenicity in Salmonella typhimurium TA100 assessed as number of revertant colonies per plate at 2.5 microg/ml in presence of S9 fraction by Ames test. The format is toxicity, subcellular. Conditions: salmonella enterica subsp. enterica serovar typhimurium, dose 2.5 µg/ml. (In general: The Ames test detects mutagens through reverse mutation in bacteria.)
The nature of data set [2]: Mutagenicity in Salmonella typhimurium TA98 assessed as number of revertant colonies per plate at 2.5 microg/ml in presence of S9 fraction by Ames test. The format is toxicity, subcellular. Conditions: salmonella enterica subsp. enterica serovar typhimurium, dose 2.5 µg/ml.
Data set [3] deals with Leishmania amazonensis. As to the kind of experiment: Antiparasitic activity against Leishmania amazonensis promastigotes incubated for 24 hrs. The format is functional, organism-based.
Data set [4] has as its system Leishmania amazonensis. In words: Antileishmanial activity against Leishmania amazonensis promastigotes. In kind it is functional, organism-based.
Data set [5] concerns Leishmania amazonensis. In words: Antileishmanial activity against leishmania amazonensis IFLA/BR/1967/PH8 intracellular amastigotes infected in mouse Peritoneal macrophage assessed as reduction in parasite growth measured for 24 hrs. Conditions: IFLA/BR/1967/PH8, Peritoneal macrophage. In kind it is functional, organism-based.
The test system of data set [6] is Leishmania amazonensis. In words: Antileishmanial activity against leishmania amazonensis IFLA/BR/1967/PH8 promastigotes infected in mouse Peritoneal macrophage incubated for 24 hrs. The format is functional, organism-based. Conditions: IFLA/BR/1967/PH8, Peritoneal macrophage.
For data set [7], the system named is Leishmania amazonensis. As to the kind of experiment: Antileishmanial activity against leishmania amazonensis IFLA/BR/1967/PH8 intracellular amastigote infected in mouse Peritoneal macrophage incubated for 24 hrs. In kind it is functional, organism-based. The following applies: IFLA/BR/1967/PH8, Peritoneal macrophage.
Data set [8] can be described thus: Cytotoxicity against BALB/c mouse Peritoneal macrophage assessed as inhibition of cell growth incubated for 48 hrs by MTT assay. Conditions: peritoneal macrophages. The format is toxicity, cell-based. Background: Formazan colour is commonly taken as a measure of viable cells.
A short description of data set [9]: Selectivity ratio of CC50 for cytotoxicity against BALB/c mouse Peritoneal macrophage assessed as inhibition of cell growth to IC50 for antileishmanial activity against leishmania amazonensis IFLA/BR/1967/PH8 intracellular amastigote infected in mouse Peritoneal macrophage. The format is toxicity, cell-based. The following applies: peritoneal macrophages, read-out: Ratio CC50/IC50.

Data set [10] can be described thus: Selectivity ratio of CC50 for cytotoxicity against BALB/c mouse Peritoneal macrophage assessed as inhibition of cell growth to IC50 for antileishmanial activity against leishmania amazonensis IFLA/BR/1967/PH8 promastigotes infected in mouse Peritoneal macrophage. In kind it is toxicity, cell-based. Conditions: peritoneal macrophages, read-out: Ratio CC50/IC50.

Data set [11] in a line: Mutagenicity in Salmonella typhimurium TA98 assessed as number of revertant colonies per plate at 10 microg/ml by Ames test. The format is toxicity. Conditions: salmonella enterica subsp. enterica serovar typhimurium; dose 10 µg/ml.
For data set [12], the system named is Leishmania amazonensis. As to the kind of experiment: Antileishmanial activity against Leishmania amazonensis promastigotes assessed as early apoptotic parasites at 10.4 uM incubated for 24 hrs by Annexin V/7-AAD staining based flow cytometry analysis relative to control. In kind it is functional. Background: A flow cytometer gives signals particle by particle.

Data set [13] has as its system Leishmania amazonensis. As to the kind of experiment: Antileishmanial activity against Leishmania amazonensis promastigotes assessed as necrotic parasites at 10.4 uM incubated for 48 hrs by Annexin V/7-AAD staining based flow cytometry analysis relative to control. In kind it is functional.
Data set [14] concerns Leishmania amazonensis. As to the kind of experiment: Antileishmanial activity against Leishmania amazonensis promastigotes assessed as viable apoptotic parasites at 10.4 uM incubated for 24 hrs by Annexin V/7-AAD staining based flow cytometry analysis relative to control. In kind it is functional.
For data set [15], the system named is Leishmania amazonensis. As to the kind of experiment: Antileishmanial activity against Leishmania amazonensis promastigotes assessed as late apoptotic parasites at 10.4 uM incubated for 24 hrs by Annexin V/7-AAD staining based flow cytometry analysis relative to control. In kind it is functional.
Data set [16] concerns Leishmania amazonensis. In words: Antileishmanial activity against Leishmania amazonensis promastigotes assessed as necrotic parasites at 10.4 uM incubated for 72 hrs by Annexin V/7-AAD staining based flow cytometry analysis relative to control. In kind it is functional.
Data set [17] relates to Leishmania amazonensis. As to the kind of experiment: Antileishmanial activity against Leishmania amazonensis promastigotes assessed as viable apoptotic parasites at 10.4 uM incubated for 72 hrs by Annexin V/7-AAD staining based flow cytometry analysis relative to control. In kind it is functional.
For data set [18], the system named is Leishmania amazonensis. As to the kind of experiment: Antileishmanial activity against Leishmania amazonensis promastigotes assessed as early apoptotic parasites at 10.4 uM incubated for 72 hrs by Annexin V/7-AAD staining based flow cytometry analysis relative to control. In kind it is functional.
The subject of data set [19] is Leishmania amazonensis. In words: Antileishmanial activity against Leishmania amazonensis promastigotes assessed as necrotic parasites at 10.4 uM incubated for 24 hrs by Annexin V/7-AAD staining based flow cytometry analysis relative to control. The format is functional.
For data set [20], the system named is Leishmania amazonensis. As to the kind of experiment: Antileishmanial activity against Leishmania amazonensis promastigotes assessed as viable apoptotic parasites at 10.4 uM incubated for 48 hrs by Annexin V/7-AAD staining based flow cytometry analysis relative to control. In kind it is functional.
Data set [21] deals with Leishmania amazonensis. In words: Antileishmanial activity against Leishmania amazonensis promastigotes assessed as late apoptotic parasites at 10.4 uM incubated for 48 hrs by Annexin V/7-AAD staining based flow cytometry analysis relative to control. The format is functional.
The subject of data set [22] is Leishmania amazonensis. In words: Antileishmanial activity against Leishmania amazonensis promastigotes assessed as late apoptotic parasites at 10.4 uM incubated for 72 hrs by Annexin V/7-AAD staining based flow cytometry analysis relative to control. In kind it is functional.
The test system of data set [23] is Leishmania amazonensis. In words: Antileishmanial activity against Leishmania amazonensis promastigotes assessed as early apoptotic parasites at 10.4 uM incubated for 48 hrs by Annexin V/7-AAD staining based flow cytometry analysis relative to control. In kind it is functional.
Data set [24] deals with Leishmania amazonensis. As to the kind of experiment: Potency index, ratio of pentamidine IC50 to test compound IC50 for antileishmanial activity against leishmania amazonensis IFLA/BR/1967/PH8 intracellular amastigote infected in mouse Peritoneal macrophage incubated for 24 hrs. The format is functional.
Data set [25] relates to Leishmania amazonensis. As to the kind of experiment: Antileishmanial activity against leishmania amazonensis assessed as reduction in parasite growth. In kind it is functional, organism-based.
Data set [26] has as its system Leishmania amazonensis. As to the kind of experiment: Antileishmanial activity against leishmania amazonensis infected in BALB/c mouse assessed as reduction parasite load in footpad. In kind it is functional. Further details: scale not given: the % may be the effect or the level left.
Data set [27] deals with Leishmania amazonensis. In words: Antileishmanial activity against leishmania amazonensis IFLA/BR/1967/PH8 promastigotes assessed as reduction in parasite growth measured for 72 hrs. In kind it is functional, organism-based. Conditions: IFLA/BR/1967/PH8, 72 h.
Data set [28] deals with Leishmania amazonensis. In words: Antileishmanial activity against leishmania amazonensis IFLA/BR/1967/PH8 amastigote measured for 72 hrs. The format is functional, organism-based. The following applies: IFLA/BR/1967/PH8, 72 h.

With `Nc1ccc2cc3ccccc3cc2c1` [2-AMINOANTHRACENE], the revertant count in data set [1] amounted to 963 revertants/plate. Besides, in data set [2], the Activity was found to be 231 revertants/plate.
`COc1cc(-c2cc(-c3cc(OC)c(OC)c(OC)c3)on2)cc(OC)c1OC` had an IC50 with Leishmania amazonensis [3] of 17.6 µM.
In the data set on Leishmania amazonensis [4], `COc1ccc(-c2cc(-c3cc(OC)c(OC)c(OC)c3)no2)cc1OC` returned an IC50 of 19.4 µM.
`COc1ccc(-n2cc(-c3cc(OC)c(OC)c(OC)c3)nn2)cc1OC`: the IC50 in the data set with Leishmania amazonensis [4] and in the data set with Leishmania amazonensis [5] was 122 µM in each case.
`COc1cc(OC)cc(-c2cc(-c3cc(OC)c(OC)c(OC)c3Cl)on2)c1`: the IC50 stood at 31.2 µM in the data set with Leishmania amazonensis [6] and 7.3 µM in the data set on Leishmania amazonensis [7]. In data set [8], the CC50 at 48 h was 82.6 µM. Further, the figures for the selectivity ratio in data set [9] and in data set [10] were 11.3 and 2.6, respectively.
Consider `COc1cc(-c2cc(-c3cc(OC)c(OC)c(OC)c3Cl)no2)cc(OC)c1OC`, for which the IC50 with Leishmania amazonensis [6] came to 74.4 µM; in the data set on Leishmania amazonensis [7], 21.8 µM. The CC50 at 48 h in [8] amounted to 7 µM. Also, the selectivity ratio in [9] is 0.3; in data set [10], 0.1.
On the same counts, the results for `COc1ccc(-c2cc(-c3cc(OC)c(OC)c(OC)c3Cl)on2)cc1OC` are 91.8 µM, 11.4 µM, 47.2 µM, 4.1 and 0.5.
On the same counts, the results for `COc1cc(-c2cc(-c3cc(OC)c(OC)c(OC)c3Cl)on2)cc(OC)c1OC` are 33.8 µM, 12.7 µM, 2.7 µM, 0.2 and 0.07.
Turning to `Nc1ccc([N+](=O)[O-])cc1N`, the Activity in data set [11] was determined as 253 µg.
`COc1cc(-c2cn(-c3cc(OC)c(OC)c(OC)c3)nn2)cc(OC)c1OC`: the IC50 with Leishmania amazonensis [3] is greater than 200 µM.
For the molecule `N=C(N)c1ccc(OCCCCCOc2ccc(C(=N)N)cc2)cc1` [PENTAMIDINE], the results for the IC50 in the data set on Leishmania amazonensis [6] and with Leishmania amazonensis [7] were 1.3 µM and 16.3 µM, respectively. Besides, the CC50 at 48 h in [8] stood at 23.2 µM. Besides, the selectivity ratio in data set [9] was 1.4; in data set [10] it was 17.8.
Take `C[C@@H]1[C@H](O)[C@@H](C)/C=C/C=C/C=C/C=C/C=C/C=C/C=C/[C@H](O[C@@H]2O[C@H](C)[C@@H](O)[C@H](N)[C@@H]2O)C[C@@H]2O[C@](O)(C[C@@H](O)C[C@@H](O)[C@H](O)CC[C@@H](O)C[C@@H](O)CC(=O)O[C@H]1C)C[C@H](O)[C@H]2C(=O)O` [AMPHOTERICIN B]: the Activity is listed as 0.6% in the data set on Leishmania amazonensis [12]; 0.6% in the data set on Leishmania amazonensis [13]; 98.7% with Leishmania amazonensis [14]; 0.3% with Leishmania amazonensis [15]; 2.5% in the data set with Leishmania amazonensis [16]; 95.1% with Leishmania amazonensis [17]. The Activity with Leishmania amazonensis [18] is recorded as 0.8%; in the data set on Leishmania amazonensis [19], 0.3%; in the data set on Leishmania amazonensis [20] it was 97.1%; with Leishmania amazonensis [21], 0.6%; in the data set with Leishmania amazonensis [22] it was 1.5%; with Leishmania amazonensis [23], 1.6%. Further, the IC50 with Leishmania amazonensis [6] is 10.4 µM; with Leishmania amazonensis [7], 2 µM. Moreover, the cytotoxic concentration (CC50) at 48 h in data set [8] stood at 12.8 µM.
For `COc1cc(-c2cc(-c3ccc4c(c3)OCO4)no2)c(Cl)c(OC)c1OC`, the results for the IC50 in the data set with Leishmania amazonensis [6] and in the data set with Leishmania amazonensis [7] were 103 µM and 10.3 µM, respectively. Moreover, the “Ratio IC50” value with Leishmania amazonensis [24] is reported as “<=7”. Also, the CC50 at 48 h in [8] was 33.7 µM. Moreover, the selectivity ratio in data set [9] was found to be 3.3; in [10], 0.3.
`COc1ccc(-c2cc(-c3cc(OC)c(OC)c(OC)c3)on2)cc1OC`: the results for the IC50 with Leishmania amazonensis [25] and with Leishmania amazonensis [7] were 20.2 µM and 1.6 µM, respectively. Moreover, the selectivity ratio in [9] came to 21. Further, in the data set with Leishmania amazonensis [26], the Activity came out at 98.5%.
As to `COc1ccc(-c2cc(-c3cc(OC)c(OC)c(OC)c3Cl)no2)cc1`, the IC50 in the data set with Leishmania amazonensis [6] was 9 µM; with Leishmania amazonensis [7], 10.9 µM. Also, in data set [8], the CC50 at 48 h was 9.6 µM. Also, the results for the selectivity ratio in [9] and in [10] were 0.8 and 1, respectively.
The like results for `COc1cc(OC)cc(-c2cc(-c3cc(OC)c(OC)c(OC)c3Cl)no2)c1` were, in that order, 71.5 µM, 19.3 µM, 28 µM, 1.5 and 0.4.
On the same counts, the results for `COc1ccc(-c2cc(-c3cc(OC)c(OC)c(OC)c3Cl)on2)cc1` are 45.8 µM, 12.5 µM, 60.7 µM, 4.9 and 1.3.
On the same counts, the results for `COc1ccc(-c2cc(-c3cc(OC)c(OC)c(OC)c3Cl)no2)cc1OC` are 88 µM, 31.7 µM, 26.7 µM, 0.8 and 0.3.
As for `COc1ccc(-c2cn(-c3cc(OC)c(OC)c(OC)c3)nn2)cc1OC`, half-maximal inhibition with Leishmania amazonensis [4] (IC50) was put at 194 µM.
As for `COc1cc(-n2cc(-c3ccc4c(c3)OCO4)nn2)cc(OC)c1OC`, the IC50 in the data set with Leishmania amazonensis [27] is 7.2 µM; in the data set on Leishmania amazonensis [6], 12 µM; in the data set with Leishmania amazonensis [7], 23.4 µM. The CC50 at 48 h in data set [8] turned out to be 23.5 µM. Moreover, the figures for the selectivity ratio in [9] and in data set [10] were 1 and 1.9, respectively.
The molecule `COc1cc(-c2cc(-c3ccc4c(c3)OCO4)no2)cc(OC)c1OC` returned an IC50 in the data set with Leishmania amazonensis [28] of 3.3 µM.
As to `COc1cccc2c1C(=O)c1c(O)c3c(c(O)c1C2=O)C[C@@](O)(C(=O)CO)C[C@@H]3O[C@H]1C[C@H](N)[C@H](O)[C@H](C)O1` [DOXORUBICIN], the CC50 at 48 h in data set [8] was 2.4 µM.

As a reminder, the IC50 is the midpoint of a concentration-inhibition curve. As usually defined, the CC50 is the concentration giving 50% cytotoxicity.

(Values after ChEMBL document CHEMBL6177952, “Exploring chloro-isoxazole compounds inspired on tetrahydrofuran neolignans as promising antileishmanial agents” (Eur J Med Chem, 2025).)
